Test results as given in PubChem BioAssay AID298 (DTP/NCI, 2004).
“And” between values parts separate entries of the source, which are not always exact repeats. Identical values can stand only once. Records with an inconclusive call do not appear.

System: MX-1 breast xenograft, intrarenal, nude mice, tumor weight
Test: NCI In Vivo Anticancer Drug Screen. Data for tumor model Human Mammary Carcinoma MX-1 Xenograft (intrarenal inoculation) in NU/NU BALB/C (nude) mice
Conditions: endpoint: mean tumor weight change, higher = larger tumour
In short: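 Mice w/ transplanted tumors, drug vs vehicle; endpoint survival or tumor size; value = T/C.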

[1] = dose: 100.0 mg/kg/injection, schedule: Q04DX003 (ip), vehicle: Klucel (hydroxypropylcellulose) (HPC)
[2] = dose: 200.0 mg/kg/injection, schedule: Q04DX003 (ip), vehicle: Klucel (hydroxypropylcellulose) (HPC)
[3] = dose: 150.0 mg/kg/injection, schedule: Q04DX003 (sc), vehicle: saline with Tween-80
[4] = dose: 300.0 mg/kg/injection, schedule: Q04DX003 (sc), vehicle: saline with Tween-80
[5] = dose: 600.0 mg/kg/injection, schedule: Q04DX003 (sc), vehicle: saline with Tween-80
[6] = dose: 150.0 mg/kg/injection, schedule: Q04DX003 (sc), vehicle: saline
[7] = dose: 300.0 mg/kg/injection, schedule: Q04DX003 (sc), vehicle: saline

CN(C)c1ccc2c(Nc3ccc(NS(C)(=O)=O)cc3)c3ccc(N(C)C)cc3nc2c1
T/C [1]: 115 % of control | T/C [2]: 39 % of control

C[C@@]1(CO)[C@H](O)CC[C@@]2(C)[C@H]1CC[C@H]1C[C@@H]3C[C@@]12CC[C@@]3(O)COC(=O)CN
T/C (dose: 50.0 mg/kg/injection, schedule: Q04DX003 (ip), vehicle: saline + alcohol): 107 % of control | T/C (dose: 100.0 mg/kg/injection, schedule: Q04DX003 (ip), vehicle: saline + alcohol): 95 % of control

CC1OC2CC(O)C1(O)C1=C2C(O)=C(C(N)=O)C(=N)C1=O (centres undefined)
T/C (dose: 0.62 mg/kg/injection, schedule: Q04DX003 (ip), vehicle: saline): 99 % of control | T/C (dose: 1.25 mg/kg/injection, schedule: Q04DX003 (ip), vehicle: saline): 62 % of control | T/C (dose: 2.5 mg/kg/injection, schedule: Q04DX003 (ip), vehicle: saline): 101 % of control

CN(C)C(=O)Nc1ccc(Cl)cc1
T/C (dose: 150.0 mg/kg/injection, schedule: Q04DX003 (ip), vehicle: suspension in saline): 71 % of control | T/C (dose: 300.0 mg/kg/injection, schedule: Q04DX003 (ip), vehicle: suspension in saline): 98 % of control | T/C (dose: 600.0 mg/kg/injection, schedule: Q04DX003 (ip), vehicle: suspension in saline): 91 % of control

N=C1CCCS1
T/C (dose: 18.75 mg/kg/injection, schedule: Q04DX003 (sc), vehicle: saline): 108 % of control | T/C (dose: 37.5 mg/kg/injection, schedule: Q04DX003 (sc), vehicle: saline): 91 % of control | T/C (dose: 75.0 mg/kg/injection, schedule: Q04DX003 (sc), vehicle: saline): 124 % of control

CCOC1=Cc2c(oc3c(C(C)(C)C)cc(OCC)cc23)OC(C(C)(C)C)=C1
T/C (dose: 37.5 mg/kg/injection, schedule: Q04DX003 (sc), vehicle: saline with Tween-80): 94 % of control | T/C (dose: 75.0 mg/kg/injection, schedule: Q04DX003 (sc), vehicle: saline with Tween-80): 98 % of control | T/C [3]: 121 % of control | T/C [4]: 92 % of control and 111 % of control | T/C [5]: 77 % of control | T/C (dose: 2400.0 mg/kg/injection, schedule: Q04DX003 (sc), vehicle: saline with Tween-80): 73 % of control

NC(=S=O)C(N)=S=O
T/C (dose: 125.0 mg/kg/injection, schedule: Q04DX003 (ip), vehicle: saline with Tween-80): 42 % of control | T/C (dose: 250.0 mg/kg/injection, schedule: Q04DX003 (ip), vehicle: saline with Tween-80): 65 % of control | T/C (dose: 500.0 mg/kg/injection, schedule: Q04DX003 (ip), vehicle: saline with Tween-80): 60 % of control

COC1C(N)C(OC2C(Oc3cccc4c(O)c5c(=O)oc6ccc(C)c7c(=O)oc(c34)c5c67)OC(C)C(O)C2(C)O)OC(C)C1O (centres undefined)
T/C (dose: 2.5 mg/kg/injection, schedule: Q04DX003 (ip), vehicle: lactic acid): 90 % of control | T/C (dose: 10.0 mg/kg/injection, schedule: Q04DX003 (ip), vehicle: lactic acid): 6 % of control

CC(=O)C[n+]1ccc(C)cc1Sc1ccccc1C
T/C (dose: 15.0 mg/kg/injection, schedule: Q04DX003 (ip), vehicle: suspension in saline): 111 % of control | T/C (dose: 30.0 mg/kg/injection, schedule: Q04DX003 (ip), vehicle: suspension in saline): 97 % of control | T/C (dose: 60.0 mg/kg/injection, schedule: Q04DX003 (ip), vehicle: suspension in saline): 80 % of control | T/C (dose: 120.0 mg/kg/injection, schedule: Q04DX003 (ip), vehicle: suspension in saline): 102 % of control

N/C(=N/N=C/c1cc(Br)cc(Br)c1O)NO
T/C (dose: 50.0 mg/kg/injection, schedule: Q04DX003 (ip), vehicle: suspension in saline): 107 % of control | T/C (dose: 200.0 mg/kg/injection, schedule: Q04DX003 (ip), vehicle: suspension in saline): 27 % of control

CC(C)C(N)C(=O)Nc1nncs1 (centres undefined)
T/C [6]: 73 % of control | T/C [7]: 77 % of control | T/C (dose: 600.0 mg/kg/injection, schedule: Q04DX003 (sc), vehicle: saline): 86 % of control | T/C (dose: 1200.0 mg/kg/injection, schedule: Q04DX003 (sc), vehicle: saline): 46 % of control

O=[N+]([O-])c1nccn1CC(O)CO (centres undefined)
T/C (dose: 300.0 mg/kg/injection, schedule: Q04DX004 (sc), vehicle: saline): 96 % of control | T/C (dose: 600.0 mg/kg/injection, schedule: Q04DX004 (sc), vehicle: saline): 91 % of control | T/C (dose: 2400.0 mg/kg/injection, schedule: Q04DX004 (sc), vehicle: saline): 93 % of control

Nc1ccc2ccc(N)cc2c1
T/C (dose: 150.0 mg/kg/injection, schedule: Q04DX003 (ip), vehicle: saline with Tween-80): 75 % of control | T/C (dose: 300.0 mg/kg/injection, schedule: Q04DX003 (ip), vehicle: saline with Tween-80): 65 % of control

CN(C)CCC(=O)C(=Cc1ccc(O)cc1)C(=O)CCN(C)C
T/C (dose: 75.0 mg/kg/injection, schedule: Q04DX003 (ip), vehicle: saline): 90 % of control | T/C (dose: 150.0 mg/kg/injection, schedule: Q04DX003 (ip), vehicle: saline): 124 % of control

C=C/C(C)=C/[C@H](C)C(=O)C[C@H](O)CC1CC(=O)NC(=O)C1
T/C (dose: 300.5 mg/kg/injection, schedule: Q04DX003 (sc), vehicle: water): 73 % of control | T/C (dose: 600.0 mg/kg/injection, schedule: Q04DX003 (sc), vehicle: water): 98 % of control | T/C (dose: 1200.0 mg/kg/injection, schedule: Q04DX003 (sc), vehicle: water): 89 % of control

C[n+]1c(-c2ccc(NC(=O)c3ccc(C(=O)Nc4ccc(-c5cn6ccccc6[n+]5C)cc4)cc3)cc2)cn2ccccc21
T/C (dose: 12.5 mg/kg/injection, schedule: Q04DX003 (ip), vehicle: saline with Tween-80): 41 % of control

N=C(N)c1ccc(Nc2ccc(-c3cc4ccc(C(=N)N)cc4[nH]3)cc2)cc1
T/C (dose: 3.75 mg/kg/injection, schedule: Q04DX003 (ip), vehicle: saline): 84 % of control | T/C (dose: 7.5 mg/kg/injection, schedule: Q04DX003 (ip), vehicle: saline): 69 % of control | T/C (dose: 15.0 mg/kg/injection, schedule: Q04DX003 (ip), vehicle: saline): 62 % of control

COC(=O)C12OCC34C(CC5C(C)C6=CC(=O)OC6=CC5(C)C3C(O)C1O)OC(=O)C(O)C24 (centres undefined)
T/C (dose: 0.5 mg/kg/injection, schedule: Q04DX003 (ip), vehicle: Klucel (hydroxypropylcellulose) (HPC)): 75 % of control | T/C (dose: 1.0 mg/kg/injection, schedule: Q04DX003 (ip), vehicle: Klucel (hydroxypropylcellulose) (HPC)): 77 % of control | T/C (dose: 2.0 mg/kg/injection, schedule: Q04DX003 (ip), vehicle: Klucel (hydroxypropylcellulose) (HPC)): 69 % of control | T/C (dose: 4.0 mg/kg/injection, schedule: Q04DX003 (ip), vehicle: Klucel (hydroxypropylcellulose) (HPC)): 45 % of control

N#Cc1c(N)[nH]c2ccc(Sc3ccccc3)cc12
T/C (dose: 30.0 mg/kg/injection, schedule: Q04DX003 (ip), vehicle: saline with Tween-80): 92 % of control | T/C (dose: 60.0 mg/kg/injection, schedule: Q04DX003 (ip), vehicle: saline with Tween-80): 88 % of control | T/C (dose: 120.0 mg/kg/injection, schedule: Q04DX003 (ip), vehicle: saline with Tween-80): 75 % of control

O=c1[nH]cnc2c1cnn2CN1CCOCC1
T/C (dose: 150.0 mg/kg/injection, schedule: Q04DX003 (ip), vehicle: Klucel (hydroxypropylcellulose) (HPC)): 96 % of control | T/C (dose: 300.0 mg/kg/injection, schedule: Q04DX003 (ip), vehicle: Klucel (hydroxypropylcellulose) (HPC)): 65 % of control

CS(C)=O
T/C (dose: 750.0 mg/kg/injection, schedule: Q01DX010 (sc), vehicle: saline): 122 % of control | T/C (dose: 3000.0 mg/kg/injection, schedule: Q01DX010 (sc), vehicle: saline): 121 % of control

COC1(OC)C2C=CC1CC2
T/C [3]: 116 % of control | T/C [4]: 104 % of control | T/C [5]: 121 % of control | T/C (dose: 1200.0 mg/kg/injection, schedule: Q04DX003 (sc), vehicle: saline with Tween-80): 111 % of control

CCn1cnc2c(=S)nc[nH]c21
T/C [6]: 91 % of control | T/C [7]: 49 % of control

CN(C)CN1C(=O)S/C(=C2\C(=O)N(CN(C)C)c3ccccc32)C1=O
T/C [1]: 102 % of control | T/C [2]: 100 % of control | T/C (dose: 400.0 mg/kg/injection, schedule: Q04DX003 (ip), vehicle: Klucel (hydroxypropylcellulose) (HPC)): 80 % of control

COc1cc(NCc2ccc3nc(N)nc(N)c3c2C)cc(OC)c1OC
T/C (dose: 15.0 mg/kg/injection, schedule: Q04DX003 (ip), vehicle: Klucel (hydroxypropylcellulose) (HPC)): 96 % of control and 101 % of control | T/C (dose: 30.0 mg/kg/injection, schedule: Q04DX003 (ip), vehicle: Klucel (hydroxypropylcellulose) (HPC)): 81 % of control and 95 % of control | T/C (dose: 120.0 mg/kg/injection, schedule: Q04DX003 (ip), vehicle: Klucel (hydroxypropylcellulose) (HPC)): 56 % of control and 71 % of control

O=C(O)c1cc(C(=O)O)c(C(=O)O)cc1C(=O)O.[NH2-].[NH2-].[NH2-].[NH2-].[Pt+2].[Pt+2]
T/C (dose: 10.0 mg/kg/injection, schedule: Q04DX003 (ip), vehicle: water): 81 % of control | T/C (dose: 20.0 mg/kg/injection, schedule: Q04DX003 (ip), vehicle: water): 42 % of control | T/C (dose: 40.0 mg/kg/injection, schedule: Q04DX003 (ip), vehicle: water): 12 % of control
